Where a name gives a salt, the structure may show the parent alone.
Key:
[1] = system: pS6K1 in MCF7 (measure of mTORC1 activity); assay: AlphaLISA Ultra pS6K1 assay; assay type: cell-based; conditions: MCF-7 cells, 2 hours compound incubation
Procedure: (§1) Assay Protocol: • 1. […] 12,000˜16,000 cells will be seeded in 36 μL medium per well. • 2. Change the culture medium with fresh medium and incubate for another 2 hours. • 3. Add 12 μL (4λ) compounds into the cell plate by HAMILTON. Final DMSO concentration is 0.5%. Incubate for 2 hours. • 4. Aspirate 38 μL by HAMILTON, 10 μL rest per well. • 5. Add 10 μL 2× lysis buffer using HAMILTON; total volume in wells is 20 μL. Allow cells to shake for 30 min. Cover plate by plastic foil and store plate at −80° C. up to analysis. • 6. […] Add 5 ul acceptor beads into assay plate and incubation for 2 hours • 8. Add 5 ul donor beads and incubation for 2 hours • 9. Count the plate by EnSpire Multimode Plate Reader

[2] = system: pAKT in MCF7 (measure of mTORC2 activity); assay: AlphaLISA Ultra pAKT assay; assay type: cell-based; conditions: MCF-7 cells, 2 hours compound incubation
Procedure: as §1, with “16,000˜20,000” for “12,000˜16,000”, “(4×)” for “(4λ)”

SMILES	IC50 ([1]; Homo sapiens, MCF7, 2 h) [nM]	IC50 ([2]; Homo sapiens, MCF7, 2 h) [nM]	IC50 [1] [nM]	IC50 [2] [nM]
Cc1c(CN2CCN(c3ccccc3Cl)CC2)cc(C(=O)N2CCN(c3cccc(CCCN)c3)C[C@@H]2C)n1C [Example I-30, (S)-(4-(3-(3-aminopropyl)phenyl)-2-methylpiperazin-1-yl)(4-((4-(2-chlorophenyl)piperazin-1-yl)methyl)-1,5-dimethyl-1H-pyrrol-2-yl)methanone trifluoroacetate salt]	3000 to 10000	> 10000		
Cc1c(CN2CCN(c3ccccc3Cl)CC2)cc(C(=O)N2CCN(c3ccc4cc[nH]c4c3)C[C@@H]2C)n1C [Example I-34, (S)-(4-(1H-indol-6-yl)-2-methylpiperazin-1-yl)(4-((4-(2-chlorophenyl)piperazin-1-yl)methyl)-1,5-dimethyl-1H-pyrrol-2-yl)methanone trifluoroacetate salt]	1000 to 3000	> 10000		
Cc1c(CN2CCCN(c3ccccc3Cl)CC2)cc(C(=O)N2CCN(c3cccc(C#N)c3)C[C@@H]2C)n1C [Example I-41, (S)-3-(4-(4-((4-(2-chlorophenyl)-1,4-diazepan-1-yl)methyl)-1,5-dimethyl-1H-pyrrole-2-carbonyl)-3-methylpiperazin-1-yl)benzonitrile]	1000 to 3000	> 10000		
Cc1c(CN2CCN(c3ccccc3Cl)CC2)cc(C(=O)N2CCN(c3ccccc3)C[C@@H]2C)n1CCCN [Example I-29, (S)-(1-(3-aminopropyl)-4-((4-(2-chlorophenyl)piperazin-1-yl)methyl)-5-methyl-1H-pyrrol-2-yl)(2-methyl-4-phenylpiperazin-1-yl)methanone dihydrochloride salt]	3000 to 10000	> 10000		
Cn1cc(CN2CCN(c3ccccc3Cl)CC2)cc1C(=O)N1CCN(c2ccccc2)CC1 [Example I-144]	1000 to 3000	> 3000		
COCCn1cc(CN2CCN(c3ccccc3C(F)(F)F)CC2)cc1C(=O)N1CCN(c2ccccc2)CC1 [Example I-139]	3000 to 10000	> 10000		
C[C@H]1CN(c2ccc(F)c(F)c2)CCN1C(=O)c1cc(CN2CCN(c3ccccc3Cl)CC2)cn1C [Example I-117, (S)-(4-((4-(2-chlorophenyl)piperazin-1-yl)methyl)-1-methyl-1H-pyrrol-2-yl)(4-(3,4-difluorophenyl)-2-methylpiperazin-1-yl)methanone]	10 to 1000	> 3000		
C[C@H]1CN(c2cc(F)ccc2C#N)CCN1C(=O)c1cc(CN2CCN(c3ccccc3Cl)CC2)cn1C [Example I-87, (S)-2-(4-(4-((4-(2-chlorophenyl)piperazin-1-yl)methyl)-1-methyl-1H-pyrrole-2-carbonyl)-3-methylpiperazin-1-yl)-4-fluorobenzonitrile]	10 to 1000	> 5000		
Cn1cc(CN2CCN(c3ccccc3Cl)CC2)cc1C(=O)N1CCN(c2ccc(F)cc2)CC1 [Example I-135]	1000 to 3000	> 3000		
Cc1c(CN2CCN(c3ccccc3Cl)CC2)cc(C(=O)N2CCN(c3cc(F)ccc3C#N)C[C@@H]2C)n1C [Example I-86, (S)-2-(4-(4-((4-(2-chlorophenyl)piperazin-1-yl)methyl)-1,5-dimethyl-1H-pyrrole-2-carbonyl)-3-methylpiperazin-1-yl)-4-fluorobenzonitrile]	10 to 1000	> 10000		
Cc1c(CN2CCN(c3ccccc3Cl)CC2)cc(C(=O)N2CCN(c3ccccc3C#N)C[C@@H]2C)n1C [Example I-100]	10 to 1000	> 10000		
Cn1cc(CN2CC3CN(c4ccccc4Cl)CC3C2)cc1C(=O)N1CCN(c2ccc(F)cc2)CC1 (stereo not drawn) [Example I-131]	3000 to 10000	> 10000		
Cc1c(CN2CCN(c3ccccc3C#N)CC2)cc(C(=O)N2CCN(c3ccccc3C#N)C[C@@H]2C)n1C [Example I-67]	10 to 1000	> 10000		
COCCn1cc(CN2CCN(c3ccccc3Cl)CC2)cc1C(=O)N1CCN(c2ccccc2F)CC1 [Example I-141]	3000 to 10000	> 10000		
O=C(c1cc(CN2CCN(c3ccccc3Cl)CC2)cn1CCCOC1CCCCO1)N1CCN(c2ccccc2)CC1 (stereo not drawn) [Example I-147]	3000 to 10000	> 10000		
O=C(c1cc(CN2CCN(c3ccccc3Cl)CC2)cn1CC(F)(F)F)N1CCN(c2ccccc2)CC1 [Example I-114, (4-((4-(2-Chlorophenyl)piperazin-1-yl)methyl)-1-(2,2,2-trifluoroethyl)-1H-pyrrol-2-yl)(4-phenylpiperazin-1-yl)methanone trifluoroacetate salt]	1000 to 3000	> 10000		

Other lines, results leading:

IC50 ([1]; Homo sapiens, MCF7, 2 h) [nM]	IC50 ([2]; Homo sapiens, MCF7, 2 h) [nM]	IC50 [1] [nM]	IC50 [2] [nM]	SMILES
10 to 1000	> 3000			Cc1c(CN2CCN(c3ncccc3Cl)CC2)cc(C(=O)N2CCN(c3cccc(C#N)c3)CC2)n1C [Example I-79, 3-(4-(4-((4-(3-Chloropyridin-2-yl)piperazin-1-yl)methyl)-1,5-dimethyl-1H-pyrrole-2-carbonyl)piperazin-1-yl)benzonitrile]
1000 to 3000	> 10000			Cc1c(CN2CCN(c3ccccc3Cl)CC2)cc(C(=O)N2CCCN(c3ccc(F)cc3)CC2)n1C [Example I-49, (4-((4-(2-Chlorophenyl)piperazin-1-yl)methyl)-1,5-dimethyl-1H-pyrrol-2-yl)(4-(4-fluorophenyl)-1,4-diazepan-1-yl)methanone]
10 to 1000	> 1000			Cc1c(CN2CCN(c3ccccc3C#N)CC2)cc(C(=O)N2CCN(c3ccc(F)cc3)CC2)n1C [Example I-55]
10 to 1000	> 1000			Cc1c(CN2CCN(c3ccccc3Cl)CC2)cc(C(=O)N2CCN(c3ccc(F)c(F)c3)CC2)n1C [Example I-109, (4-((4-(2-chlorophenyl)piperazin-1-yl)methyl)-1,5-dimethyl-1H-pyrrol-2-yl)(4-(3,4-difluorophenyl)piperazin-1-yl)methanone]
10 to 1000	> 3000			COc1cccc(N2CCN(C(=O)c3cc(CN4CCN(c5ccccc5C#N)CC4)c(C)n3C)CC2)n1 [Example I-69]
1000 to 3000	> 10000			Cc1c(CN2CCN(c3ccccc3C#N)CC2)cc(C(=O)N2CCN(c3ccc(C#N)cc3)CC2)n1C [Example I-53]
1000 to 3000	> 3000			Cc1c(CN2CCN(c3ncccc3Cl)CC2)cc(C(=O)N2CCN(c3cccc(Cl)c3)C[C@@H]2C)n1C [Example I-90, (S)-(4-(3-chlorophenyl)-2-methylpiperazin-1-yl)(4-((4-(3-chloropyridin-2-yl)piperazin-1-yl)methyl)-1,5-dimethyl-1H-pyrrol-2-yl)methanone]
		1000 to 3000	> 10000	Cc1c(CN2CCN(c3ncccc3Cl)CC2)cc(C(=O)N2CCN(c3ccccn3)CC2)n1C [Example I-2]
10 to 1000	> 3000			Cc1c(CN2CCN(c3ccccc3C#N)CC2)cc(C(=O)N2CCN(c3ncccc3C#N)CC2)n1C [Example I-56]
10 to 1000	> 3000			Cc1c(CN2CCN(c3ccccc3Cl)CC2)cc(C(=O)N2CCN(c3cccc(Cl)c3)C[C@@H]2C)n1C [Example I-112, (S)-(4-(3-chlorophenyl)-2-methylpiperazin-1-yl)(4-((4-(2-chlorophenyl)piperazin-1-yl)methyl)-1,5-dimethyl-1H-pyrrol-2-yl)methanone]
10 to 1000	> 10000			Cc1c(CN2CCN(c3ncccc3Cl)CC2)cc(C(=O)N2CCN(c3cc(F)c(F)cc3C#N)CC2)n1C [Example I-3]
